The test system of assay [1] is rabbit thoracic aorta rings. Description: Rabbit aortic ring bioassay: native and blocked Hb preparations, vessel tone and ACh (EDRF) relaxation. As to conditions: 1 μM. An excerpt: Hb-mediated inhibition of endothelium-dependent relaxations is commonly used as a marker of NO responses. Inasmuch as reactions with either metal or thiol centers of Hb should lead to attenuated NO/EDRF (endothelium-derived relaxing factor) responses, we attempted to elucidate the molecular basis of inhibition. Hb preparations in which β93 thiol groups had been blocked with N-ethylmaleimide (NEM) or the hemes blocked by cyanmet (FeIIICN)-derivitization were studied in an aortic ring bioassay, and their activities compared with that of native Hb. Both cyanmet-Hb and NEM-Hb caused increases in vessel tone and attenuated acetylcholine (EDRF)-mediated relaxations (FIG. 3B). […] To verify formation of an S-nitrosothiol in Hb, we established a bioassay in which 2 cm segments of thoracic aorta were interposed in Tygon tubing, through which 3 cc of Krebs solution containing Hb (4 μM) and ACh (2 μM) were circulated by roller pump (1.5 cc/min×5 min).
The effects of native Hb on EDRF responses were compared with Hb preparations in which the thiol or heme centers had been blocked by alkylation or cyanmet derivitization, respectively. All preparations of Hb elicited contractions; however, those of native Hb (in which both SH and metal centers are free for interaction) were most pronounced. […] Relaxations were inhibited to lesser degrees by cyanmet Hb (CN-Hb)(in which hemes were blocked from reaction) and NEM-Hb (in which thiol groups were alkylated by N-ethylmaleimide). […] Direct measurement of SNO-Hb, formed from EDRF under similar conditions, is described in Example 8.
Descending rabbit thoracic aorta were cut into 3 mm rings and mounted on stirrups attached to force transducers (model FT03, Grass Instruments, Quincy, Mass.) for measurement of isometric tone. The details of this bioassay system have been previously described (Stamler, J. S., et al., Proc. Natl. Acad. Sci. USA 89:444-448 (1992)). Cyanmet Hb was prepared from human HbA according to published protocols (Kilbourn, R. G. et al. Biochem. Biophy. Res. Comm. 199:155-162, (1994)). Alkylation of HbA with N-ethylmaleimide was followed by desalting across G-25 Sephadex to remove excess NEM. Removal of unmodified Hbcysβ93 was achieved by passage through Hg-containing affinity columns. The alkylation of free SH groups was verified using 5,5′-dithio-bis[2-nitrobenzoic acid].

The next assay relates to rat red blood cells. Description: S-nitrosylation of intraerythrocytic Hb (loading of red blood cells). It is filed as cell-based. As to conditions: for formation of intraerythrocytic SNO-Hb: oxygenated rat red blood cells. How it is done:
Given that Hb is largely contained within red blood cells, potential mechanisms by which S-nitrosylation of intracellular protein might occur were explored. […] Rapid oxidation of Hb was not observed under these conditions. […] Thus, erythrocyte access of RSNOs is thiol group specific.
Incubation of rat erythrocytes with S-nitrosocysteine (equimolar to heme (5 mM); phosphate buffer pH 7.4, 25° C.) leads to rapid formation of intracellular SNO-Hb(FeII)O2. […] By 60 min, 3 of the 4 available SH groups of Hb are S-nitrosylated (note that rat Hb contains 4 reactive SH groups). […] Spectrum A is that of SNO-Hb isolated from erythrocytes following G-25 chromatography. Treatment of A with dithionite results in reduction of the S—NO moiety, liberating free NO which is autocaptured by deoxy Hb, forming Hb(FeII)NO (note that dithionite simultaneously deoxygenates Hb) (spectrum C). […] The spectrum of Hb(FeII)NO containing 4 NO's per tetramer is shown for comparison (inset, spectrum B).
At shown intervals, red blood cells were pelleted rapidly by centrifugation, washed three times, lysed in deionized water at 4° C., and the cytosolic fraction subjected to rapid desalting across G-25 columns. Intracellular SNO-Hb was measured by the method of Saville (Gaston, B., et al., (1992); Stamler, J. S., et al., Proc. Natl. Acad. Sci. USA, 89:444-448 (1992)), and confirmed spectroscopically (inset of FIG. 3A) as described above.

The subject of another assay is vascular ring. Description: Vessel ring bioassay of SNO-Hb preparations, with or without glutathione. Particulars: glutathione 100 μM in bioassay chambers. From the text: Arterial red blood cells contain two physiologically important forms of hemoglobin: Hb(FeII)O2 and Hb(FeIII) (Antonini et al. (1971)). […] Such findings raise the possibility of functional consequences, perhaps influenced by the redox state of heme and its occupation by ligand.
Details of the vessel ring bioassay have been published (Stamler, J. S., et al., Proc. Natl. Acad. Sci. USA 89:444-448 (1992)). SNO-Hb(FeII)O2 preparations were synthesized with 10-fold excess S-nitrosocysteine (CYSNO) over Hb(FeII)O2 protein (2% borate, 0.5 mM EDTA, ˜15 min incubation), after which desalting was performed across Sephadex G-25 columns. CYSNO was synthesized in 0.5 N HCl, 0.5 mM EDTA and then neutralized (1:1) in 1 M phosphate buffer containing 0.5 mM EDTA. […] The latter was synthesized by treatment of Hb(FeII)O2 with excess ferricyanide, followed by desalting across G-25 columns. SNO-Hb concentrations were verified spectroscopically and the S-nitrosothiol content was determined by the method of Saville (Stamler, J. S., et al., Proc. Nat. Acad. Sci. USA 89:444-448 (1992)). The S-NO/tetramer stoichiometry for both SNO-Hb preparations was ˜2. Oxidation of the heme was undetectable by uv-spectrophotometric methods.

The next assay deals with Sprague-Dawley rat. Description: Mean arterial pressure after femoral vein bolus of cell-free Hb and SNO-Hbs. It is filed as in vivo. From the text: Systemic administration of cell-free Hb results in hypertensive responses which have been attributed to NO scavenging by the heme (Vogel, W. M., et al., Am. J. Physiol. 251:H413-H420 (1986); Olsen, S. B., et al., Circulation 93:329-332 (1996)). To determine if SNO-Hb is free of this adverse affect, and to explore if in vitro mechanisms of NO release extend to the in vivo circumstance, we compared responses to Hb and SNO-Hb infused as a bolus into the femoral vein of anesthetized rats. […] Thus, the profiles of these compounds in vivo closely resemble those seen in vitro (FIG. 4A). […] These changes in mean blood pressure of ˜10% are on the order of those that differentiate normotension from hypertension in man, and in the therapeutic range of some antihypertensive regimens. […] The bioactivity of SNO-Hb in blood, where S—NO/heme stoichiometries approach 1:50,000, is a dramatic illustration of the resistence of this NO-related activity to Hb(Fe) inactivation.
Administration of 2-200 nmol/kg Hb(FeII)O2 (as a bolus) into the femoral vein of a Sprague-Dawley rat is shown to increase mean arterial pressure in a dose-dependent manner. At 200 nmol/kg, mean arterial pressure increased by 25 mm Hg (20±3 mm Hg; n=4; P<0.05). Elevations in blood pressure reversed within 10-15 min. SNO-Hb(FeII)O2 infusions (over the same dose range) are shown to ameliorate Hb(FeII)O2-induced hypertension without causing overt changes in blood pressure. […] A fall in blood pressure was also seen with injection of erythrocytes containing SNO-Hb.
Rats were anesthetized by intraperitoneal injection of pentobarbital and the femoral arteries and veins accessed by local cut down. The artery was then cannulated and the blood pressure monitored continuously using a Viggo Spectramed pressure transducer attached to a Gould recorder. An IBM PC (DATA Q Codas) was used for data acquisition.

In another assay the test system is Sprague-Dawley rats. Description: Local cerebral blood flow by H2-sensitive microelectrodes. As to conditions: 1 μmol/kg infused over 3 minutes. Format: in vivo, rat. How it is done: Adult male Sprague-Dawley rats (290-350 g) were anesthetized with sodium pentobarbital (50 mg/kg IP), intubated and ventilated with a small animal respirator (Edco Scientific Inc., Chapel Hill, N.C.) at a rate and tidal volume to maintain normal values of PaCO2 (35-45 mm Hg; PaCO2=systemic arterial blood carbon dioxide tension). The femoral vein and artery were cannulated for infusion of drugs and for continuous monitoring of systemic blood pressure, respectively. Aliquots of arterial blood (200 μl) were drawn periodically to measure blood gas tensions and pH (Instrumentation Laboratory Co., model 1304 blood gas/pH analyzer). The blood was replaced intravenously with three volumes of normal saline. The inspired O2 concentration was varied using premixed gases balanced with nitrogen. The tissue PO2 was measured continuously with polarographic platinum microelectrodes (50 μm O.D. coated with hydrophobic gas permeable Nafion) implanted stereotaxically in both the right and left hippocampus (AP−3.4 mm, ML+2.2 mm), caudate putamen nucleus and substantia nigra (see coordinates below) (Young, W., Stroke, 11:552-564 (1980); Heiss, W. D. and Traupett, H., Stroke, 12:161-167 (1981); Dewhirst, M. W. et al., Cancer Res., 54:3333-3336 (1994); Kerger, H. et al., Am. J. Physiol., 268:H802-H810 (1995)). The PO2 electrodes were polarized to −0.65V against a distant Ag/AgCl reference located on the tail and the current flow was measured using a low-impedance nA-meter. Regional arterial PO2 was adjusted by changing the inspired O2 concentration and atmospheric pressure.
Polarographic hydrogen (H2)-sensitive microelectrodes were implanted stereotaxically in the substantia nigra (AP −5.3 mm, ML −2.4 mm to the bregma, depth 3.2 mm), caudate putamen nucleus (CPN) (AP +0.8 mm, ML −2.5 mm, depth 5.2 mm) and parietal cortex, for measurement of regional blood flow (Young, W., Stroke, 11:552-564 (1980); Heiss, W. D. and Traupett, H., Stroke, 12:161-167 (1981)). The microelectrodes were made from platinum wire and insulated with epoxy, with the exception of the tip (1 mm) which was coated with Nafion. For placement, the electrodes were mounted on a micromanipulator and the rat's head was immobilized in a Kopf stereotaxic frame. H2-sensitive electrodes were polarized to +400 mV against a distant reference electrode on the tail, and the polarographic current was measured using a low-impedance nA meter during and after the inhalation of hydrogen gas (2.5%) for 1 min. Both the hydrogen clearance curves and voltage for oxygen measurements were made using PC WINDAQ (software, DI-200 AC, Dataq Instruments, Inc., Akron, Ohio). Cerebral blood flow was calculated using the initial slope method (Young, W., Stroke, 11:552-564 (1980); Heiss, W. D. and Traupett, H., Stroke, 12:161-167 (1981)). Regional blood flow responses were monitored for 30 min. prior to and 30 min. following drug administration; hemoglobins were given at time 0.
The cerebrovascular effects of SNO-Hb were measured in adult male Sprague-Dawley rats using O2 and H2 (blood flow)-sensitive microelectrodes that were placed stereotaxically in several regions of the brain as for Example 11.
Comparative effects of SNO-Hb (●) and Hb (▪) (1 μmol/kg infused over 3 minutes) on local blood flow in substantia nigra (SN), caudate putamen nucleus, and parietal cortex are shown for three different conditions. […] Baseline blood flow was decreased by ˜10% under 100% O2+3 ATA as compared to 100% O2. n=7 for all data points. Values of tissue/microvascular PO2 ranged from 19-37 mm Hg in 21% O2; from 68-138 mm Hg in 100% O2; and from 365-538 mm Hg in 100%+3 ATA (Duke University Medical Center Hyperbaric Chambers).

In assay [2] the test system is rabbit thoracic aorta rings. Description: Oxygen-dependent rabbit aortic ring bioassay of Hb, SNO-Hb, GSNO and SNO-RBCs.

Where “and” joins values, the source holds several entries; their conditions need not be identical. Identical values can stand only once.

In the case of `CC(=O)OCC[N+](C)(C)C` [ACh, acetylcholine], in assay [1], the “% ACh RELAXATION” value is recorded as 98.3 ± 0.6 (n = 10) %.
Take `[N]=O` [NO, nitric oxide, reference compound]: in the assay on rat red blood cells, the “formation of intraerythrocytic SNO-Hb” value is recorded as “primarily in metHb formation”.
Consider `N[C@@H](CSN=O)C(=O)O` [S-nitrosocysteine], for which the “SH groups of Hb S-nitrosylated” value in the assay on rat red blood cells (of the 4 available SH groups of rat Hb, by 60 min, equimolar to heme (5 mM), pH 7.4, 25° C.) was 3. For the same molecule, the “formation of intraerythrocytic SNO-Hb” value with rat red blood cells is on record as “very rapid formation of intracellular SNO-Hb(FeII)O2”.
`N[C@@H](CSN=O)C(=O)NCC(=O)O` [S-nitrosocysteinylglycine]: the “formation of intraerythrocytic SNO-Hb” value with rat red blood cells is given as “Intraerythrocytic SNO-Hb also formed”.
As to `N[C@@H](CCSN=O)C(=O)O` [S-nitrosohomocysteine], in the assay with rat red blood cells, the “formation of intraerythrocytic SNO-Hb” value is given as “Intraerythrocytic SNO-Hb also formed”.
Take “CN-Hb: cyanmet Hb, in which hemes were blocked from reaction”: in assay [1], the “% ACh RELAXATION” value is recorded as 80.7 ± 1.0 † (n = 4) % and the “% INCREASE IN TENSION” value was 12.9 ± 3.0 (n = 6) %.
Consider “Hb(FeII)O2: oxyhemoglobin, cell-free [reference compound]”, for which, in the assay on vascular ring, the “effect of added glutathione on the dose-response” value is given as “did not significantly influence the response”. Further, the “increase in mean arterial pressure” value with Sprague-Dawley rat (200 nmol/kg bolus, femoral vein, anesthetized rat) was 20±3 mm Hg and 25 mm Hg. Further, the “time for elevations in blood pressure to reverse” value with Sprague-Dawley rat (2-200 nmol/kg bolus) lay within 10 to 15 min.
On to “Hb: native cell-free human hemoglobin purified from red cells [reference compound]”, for which the “local cerebral blood flow” value in the assay on Sprague-Dawley rats (21% O2) is recorded as “decreased local blood flow”; with Sprague-Dawley rats (100% O2) it was “decrease in flow was preserved”; in the assay on Sprague-Dawley rats (100% O2+3 ATA), “tended to decrease cerebral flow to similar extents”. In addition, the “effect on tone of rings contracted with phenylephrine under hypoxia” value in assay [2] (1 μM, 6-7 torr) is recorded as “progressive increases in vessel tone”. Moreover, the “% ACh RELAXATION” value in assay [1] is 31.9 ± 6.9 (n = 7) %. Further, in assay [1], the “% INCREASE IN TENSION” value was 40.8 ± 2.3 (n = 7) %.
“NEM-Hb: Hb in which thiol groups were alkylated by N-ethylmaleimide”: in assay [1], the “% ACh RELAXATION” value was 60.5 ± 3.9 (n = 7) % and the “% INCREASE IN TENSION” value is 29.4 ± 1.3 (n = 7) %.
Consider “deoxyHb: deoxygenated hemoglobin [reference compound]”, for which the “effect on vessel tone in T-structure” value in assay [2] (<1% O2 (˜6 torr)) was “powerful contractile agent”.

Values taken from patent US6916471B2, “Red blood cells loaded with S-nitrosothiol and uses therefor” (Duke University, priority 1995, dated 2005).
